Assay results from patent US8637269B2, “Method for the detection of melamine” (Bioo Scientific Corporation, priority 2009, dated 2014).

Target: recombinant MDA enzyme (melamine deaminase, Tri A) (Paracidovorax citrulli, UniProt Q9EYU0)
Assay: Enzymatic detection of melamine in microtiter plates (MDA-mediated conversion to ammonia, indophenol colour)
Format: biochemical, Pseudomonas sp. strain NRRL B-12227
Settings: melamine (1000 ppm stock) and MDA enzyme diluted in 0.1 M Na-MOPS pH 7, overnight (about 12 hours), room temperature; salicylate/nitroprusside and NaOH/hypochlorite reagents; FIG. 2
Source text: The TriA gene encoding the melamine deaminase enzyme was inserted into the multiple cloning site region of the pET 24b bacterial expression plasmid. This subcloning strategy places the gene under the transcriptional regulation of the T7 RNA polymerase and fuses a His6 peptide tag onto the C-terminus of the protein to facilitate purification. We expressed the protein (MW about 50 kDa) in E. coli strain BL21 (DE3) and obtained significant amounts of soluble protein in the induced bacterial cultures. After disruption the lysed cell extract was passed over a Talon Cobalt column to bind the His6-tagged protein. After washing the column the bound protein was eluted from the column and dialyzed to remove imidazole.
Purified, desalted recombinant MDA enzyme (about 2 mg/ml in 0.1 M Na-MOPS buffer pH 7) and melamine (1000 ppm) were diluted into 0.1 M Na-MOPS buffer (pH 7) and incubated overnight (about 12 hours) at room temperature. Reaction aliquots were removed and tested for the production of ammonia by mixing the samples with salicylate/nitroprusside and NaOH/hypochlorite reagents in 96 well microtiter plates.

recombinant MDA enzyme (melamine deaminase, Tri A), sequence (Q9EYU0 whole entry): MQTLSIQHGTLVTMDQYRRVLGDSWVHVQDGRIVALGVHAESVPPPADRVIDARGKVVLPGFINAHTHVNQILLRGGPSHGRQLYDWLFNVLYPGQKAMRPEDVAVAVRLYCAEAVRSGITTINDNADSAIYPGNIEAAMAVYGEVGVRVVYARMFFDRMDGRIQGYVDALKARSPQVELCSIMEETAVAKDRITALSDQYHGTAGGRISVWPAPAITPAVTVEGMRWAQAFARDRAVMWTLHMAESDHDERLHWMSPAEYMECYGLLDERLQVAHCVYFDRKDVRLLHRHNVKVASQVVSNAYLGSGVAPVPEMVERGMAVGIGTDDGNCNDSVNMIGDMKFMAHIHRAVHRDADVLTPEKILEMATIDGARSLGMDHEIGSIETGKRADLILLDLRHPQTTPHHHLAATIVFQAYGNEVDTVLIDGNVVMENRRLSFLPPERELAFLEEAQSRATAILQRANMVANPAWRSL

Nc1nc(N)nc(N)n1 [melamine]
color change indicating MDA-mediated conversion of melamine to ammonia: strong color change
